Test results taken from ChEMBL document CHEMBL1201862, “PubChem BioAssay data set” (2004).
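Five concentrations, 48 hours, 96-well plates. GI50 is the concentration that inhibits growth by half.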 The source made the active and inactive calls. No stated cut-off is given here; in the data, active = GI50 up to about 1.1 µM and inactive = higher.

What was measured:
Test in all cases: DTP human tumour cell line panel, 48 h
[1] = tested on: RXF 393
[2] = tested on: TK-10
[3] = tested on: NCI-H226
[4] = tested on: MOLT-4
[5] = tested on: KM12
[6] = tested on: EKVX
[7] = tested on: SW-620
[8] = tested on: HCC 2998
[9] = tested on: SF-295
[10] = tested on: SF-268
[11] = tested on: SNB-75
[12] = tested on: DU-145
[13] = tested on: U-251
[14] = tested on: HOP-62
[15] = tested on: SF-539
[16] = tested on: NCI-H460
[17] = tested on: MDA-N
[18] = tested on: SN12C
[19] = tested on: HCT-15
[20] = tested on: HOP-92

| Compound | GI50 [1] | GI50 [2] | GI50 [3] | GI50 [4] | GI50 [5] | GI50 [6] | GI50 [7] | GI50 [8] | GI50 [9] | GI50 [10] | GI50 [11] | GI50 [12] | GI50 [13] | GI50 [14] | GI50 [15] | GI50 [16] | GI50 [17] | GI50 [18] | GI50 [19] [µM] | GI50 [20] |
| --- | --- | --- | --- | --- | --- | --- | --- | --- | --- | --- | --- | --- | --- | --- | --- | --- | --- | --- | --- | --- |
| CN(Cc1cnc2nc(N)nc(N)c2n1)c1ccc(C(=O)NC(CCC(=O)O)C(=O)O)c2ccccc12 (stereo unspecified) | < 0.1 µM (active) | 0.0458 µM (active) | < 0.1 µM (active) | 0.00545 µM (active) | 0.00256 µM (active) | < 0.1 µM (active) | 0.00137 µM (active) | 0.00145 µM (active) | 0.00604 µM (active) | 0.00536 µM (active) | 69.3 nM (active) | 0.00938 µM (active) | 0.0114 µM (active) | < 0.0185 µM (active) | 0.00577 µM (active) | 0.0011 µM (active) | 0.000834 µM (active) | 0.00697 µM (active) | 0.00186 | – |
| CCOC(=O)/C(C(=S)Nc1ccccc1)=C(/N)N1CCCC1 | 63.1 µM (inactive) | > 100 µM (inactive) | > 100 µM (inactive) | > 100 µM (inactive) | 61.1 µM (inactive) | > 100 µM (inactive) | 48.9 µM (inactive) | > 100 µM (inactive) | > 100 µM (inactive) | > 100 µM (inactive) | – | > 100 µM (inactive) | 61.2 µM (inactive) | > 100 µM (inactive) | > 100 µM (inactive) | 62.2 µM (inactive) | 31 µM (inactive) | > 100 µM (inactive) | > 100 | 2.1 µM (inactive) |
| Cc1c2cc[n+](CCN3CCCCC3)cc2c(C)c2c1[nH]c1ccc(O)cc12 | 5.2 µM (inactive) | 15.1 µM (inactive) | – | – | 1.64 µM (inactive) | 3.92 µM (inactive) | 3.19 µM (inactive) | 3.12 µM (inactive) | 1.47 µM (inactive) | 1.4 µM (inactive) | 647 nM (active) | 1.89 µM (inactive) | 0.8 µM (active) | 2.32 µM (inactive) | 3.45 µM (inactive) | 0.418 µM (active) | 12.1 µM (inactive) | 0.401 µM (active) | 12.5 | 5.11 µM (inactive) |
| N#Cc1c(N)nc(Sc2ccccc2N)c(C#N)c1-c1ccc(Cl)cc1 | 16 µM (inactive) | 13.7 µM (inactive) | 37.2 µM (inactive) | 1.37 µM (inactive) | 12.6 µM (inactive) | 4.29 µM (inactive) | > 33.3 µM (inactive) | 9.73 µM (inactive) | 6.65 µM (inactive) | 6.24 µM (inactive) | – | 12.7 µM (inactive) | 7.59 µM (inactive) | 3.7 µM (inactive) | 11.8 µM (inactive) | 9.46 µM (inactive) | 9.91 µM (inactive) | 13.8 µM (inactive) | 7.4 | 15.8 µM (inactive) |
| NC(=S)NS(=O)(=O)c1ccc(Cl)cc1 | > 100 µM (inactive) | > 100 µM (inactive) | > 100 µM (inactive) | > 100 µM (inactive) | > 100 µM (inactive) | 83.2 µM (inactive) | > 100 µM (inactive) | > 100 µM (inactive) | > 100 µM (inactive) | > 100 µM (inactive) | > 100000 nM (inactive) | > 100 µM (inactive) | > 100 µM (inactive) | > 100 µM (inactive) | > 100 µM (inactive) | > 100 µM (inactive) | > 100 µM (inactive) | > 100 µM (inactive) | > 100 | – |
| CC(C)(C)C1CCC2c3c([nH]c4ccccc34)C3C(=O)N(c4cc(Cl)ccc4Cl)C(=O)C3C2C1 (stereo unspecified) | > 100 µM (inactive) | > 100 µM (inactive) | > 100 µM (inactive) | > 100 µM (inactive) | – | > 100 µM (inactive) | 5.85 µM (inactive) | > 100 µM (inactive) | > 100 µM (inactive) | – | – | > 100 µM (inactive) | > 10 µM (inactive) | > 100 µM (inactive) | > 100 µM (inactive) | > 100 µM (inactive) | > 100 µM (inactive) | > 100 µM (inactive) | > 100 | 65.8 µM (inactive) |
